Measurements taken from ChEMBL document CHEMBL1201862, “PubChem BioAssay data set” (2004).
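Method: 48-hour compound exposure of cells in 96-well plates, five concentrations, linear interpolation of endpoints. At the GI50, growth is halved.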 Active and inactive are the calls of the source. Rule as the data show it: active = GI50 up to about 1.1 µM and inactive = higher.

How the values were obtained:
Assay in all cases: DTP human tumour cell line panel, 48 h
[1] = tested on: A549
[2] = tested on: EKVX
[3] = tested on: HCC 2998
[4] = tested on: HCT-15
[5] = tested on: HOP-92
[6] = tested on: KM12
[7] = tested on: M19-MEL
[8] = tested on: SF-295
[9] = tested on: SF-539
[10] = tested on: SK-MEL-28
[11] = tested on: SK-MEL-2
[12] = tested on: SK-MEL-5
[13] = tested on: SW-620
[14] = tested on: UACC-257
[15] = tested on: HT-29
[16] = tested on: LOX IMVI
[17] = tested on: HL-60
[18] = tested on: DU-145
[19] = tested on: MDA-MB-231
[20] = tested on: NCI/ADR-RES

| Structure (SMILES) | GI50 [1] | GI50 [2] | GI50 [3] | GI50 [4] | GI50 [5] | GI50 [6] | GI50 [7] | GI50 [8] | GI50 [9] | GI50 [10] | GI50 [11] | GI50 [12] | GI50 [13] | GI50 [14] | GI50 [15] | GI50 [16] | GI50 [17] | GI50 [18] | GI50 [19] | GI50 [20] |
| --- | --- | --- | --- | --- | --- | --- | --- | --- | --- | --- | --- | --- | --- | --- | --- | --- | --- | --- | --- | --- |
| COC(=O)C(=O)C(C(=O)C(=O)Nc1cc(C)ccc1C)c1nc2ccc(C(=O)c3ccccc3)cc2nc1O (stereo unspecified) | > 100 µM (inactive) | > 100 µM (inactive) | > 100 µM (inactive) | > 100 µM | 45.8 µM (inactive) | 71.4 µM (inactive) | 88.7 µM (inactive) | 83.6 µM (inactive) | > 100 µM (inactive) | > 10 µM (inactive) | > 100 µM (inactive) | 62.1 µM (inactive) | > 100 µM (inactive) | > 100 µM (inactive) | – | – | – | – | – | – |
| N#CC(C(=O)/C(=N/NC(=O)c1ccccc1O)C(C#N)c1ccccc1)c1ccccc1 (stereo unspecified) | > 100 µM (inactive) | > 100 µM (inactive) | > 100 µM (inactive) | > 100 µM | > 100 µM (inactive) | > 100 µM (inactive) | > 100 µM (inactive) | > 100 µM (inactive) | > 100 µM (inactive) | > 100 µM (inactive) | > 100 µM (inactive) | – | – | > 100 µM (inactive) | > 100 µM (inactive) | > 100 µM (inactive) | – | – | – | – |
| NC(=S)N/N=C1/C(=O)N(c2ccc(Cl)cc2Cl)C(=O)C(=O)C1c1nc2ccccc2s1 (stereo unspecified) | – | > 100 µM (inactive) | > 100 µM (inactive) | > 100 µM | > 100 µM (inactive) | > 100 µM (inactive) | > 100 µM (inactive) | > 100 µM (inactive) | > 100 µM (inactive) | > 100 µM (inactive) | > 100 µM (inactive) | > 100 µM (inactive) | > 100 µM (inactive) | > 100 µM (inactive) | > 100 µM (inactive) | > 100 µM (inactive) | – | – | – | – |
| NC(=S)N/N=C/C(=C/Nc1ccccc1)[N+](=O)[O-] | > 100 µM (inactive) | > 100 µM (inactive) | – | > 100 µM | > 100 µM (inactive) | – | > 100 µM (inactive) | > 100 µM (inactive) | > 100 µM (inactive) | > 100 µM (inactive) | > 100 µM (inactive) | – | > 100 µM (inactive) | > 100 µM (inactive) | > 100 µM (inactive) | > 100 µM (inactive) | > 100 µM (inactive) | – | – | – |
| O=c1[nH]c(=O)n(C2CC(O)C(CO)O2)cc1I (stereo unspecified) | > 73.1 µM (inactive) | > 100 µM (inactive) | > 82.6 µM (inactive) | > 100 µM | > 100 µM (inactive) | > 100 µM (inactive) | – | > 100 µM (inactive) | > 100 µM (inactive) | > 100 µM (inactive) | > 100 µM (inactive) | > 100 µM (inactive) | > 100 µM (inactive) | > 100 µM (inactive) | > 100 µM (inactive) | > 87.1 µM (inactive) | > 81.3 µM (inactive) | > 100 µM (inactive) | > 100 µM (inactive) | > 100 µM (inactive) |
| NC(=O)CSc1c2cc(O)ccc2nc2ccc(O)cc12 | > 10 µM (inactive) | > 10 µM (inactive) | > 10 µM (inactive) | > 10 µM | > 10 µM (inactive) | > 10 µM (inactive) | – | > 10 µM (inactive) | > 10 µM (inactive) | > 10 µM (inactive) | > 10 µM (inactive) | > 10 µM (inactive) | > 10 µM (inactive) | > 10 µM (inactive) | > 10 µM (inactive) | > 10 µM (inactive) | > 10 µM (inactive) | > 10 µM (inactive) | > 10 µM (inactive) | > 10 µM (inactive) |
| O=c1[nH]cnc2c(COCCO)c[nH]c12 | – | > 100 µM (inactive) | – | > 100 µM | > 100 µM (inactive) | > 100 µM (inactive) | > 100 µM (inactive) | > 100 µM (inactive) | > 100 µM (inactive) | > 100 µM (inactive) | > 100 µM (inactive) | > 100 µM (inactive) | > 100 µM (inactive) | > 100 µM (inactive) | > 100 µM (inactive) | > 100 µM (inactive) | > 100 µM (inactive) | – | – | – |
| C=C1C(C2(C)C(OC(C)=O)CC(=O)OC(C)(COC(C)=O)C2CC(=O)OC)C(OC=O)C(OC(=O)C(O)C(C)CC)C2(C)C(c3ccoc3)CC(=O)C12O (stereo unspecified) | 3.56 µM (inactive) | 6.32 µM (inactive) | 0.16 µM (active) | 4.8 µM | 7.35 µM (inactive) | 3.23 µM (inactive) | – | 4.32 µM (inactive) | 4.42 µM (inactive) | 10.8 µM (inactive) | > 31.4 µM (inactive) | 2.94 µM (inactive) | 2.08 µM (inactive) | > 100 µM (inactive) | 3.42 µM (inactive) | 3.82 µM (inactive) | 0.157 µM (active) | 5.46 µM (inactive) | 4.69 µM (inactive) | 45.9 µM (inactive) |
| COc1cc(/C=C2\N=C(c3ccccc3)N(/N=C3\C(=O)Nc4ccccc43)C2=O)cc(OC)c1OC | > 100 µM (inactive) | 46.2 µM (inactive) | > 100 µM (inactive) | > 100 µM | 40.3 µM (inactive) | > 100 µM (inactive) | – | > 100 µM (inactive) | > 100 µM (inactive) | > 100 µM (inactive) | > 100 µM (inactive) | > 100 µM (inactive) | > 100 µM (inactive) | > 100 µM (inactive) | > 100 µM (inactive) | 90.8 µM (inactive) | 94.4 µM (inactive) | > 100 µM (inactive) | > 100 µM (inactive) | > 100 µM (inactive) |
| Nc1ccc(-c2nc3ccccc3s2)cc1Br | > 100 µM (inactive) | 26.4 µM (inactive) | 72.6 µM (inactive) | 62.8 µM | 26.5 µM (inactive) | > 92.9 µM (inactive) | – | 66.7 µM (inactive) | > 51.3 µM (inactive) | > 100 µM (inactive) | > 100 µM (inactive) | > 100 µM (inactive) | > 100 µM (inactive) | > 100 µM (inactive) | > 100 µM (inactive) | > 80.9 µM (inactive) | > 100 µM (inactive) | > 100 µM (inactive) | 52.6 µM (inactive) | > 100 µM (inactive) |
| Cc1ccc(S(=O)(=O)CNC(=O)C(O)(O)C(F)(F)F)cc1 | > 100 µM (inactive) | > 100 µM (inactive) | > 100 µM (inactive) | > 100 µM | > 100 µM (inactive) | > 100 µM (inactive) | – | > 100 µM (inactive) | > 100 µM (inactive) | > 100 µM (inactive) | > 100 µM (inactive) | > 100 µM (inactive) | > 100 µM (inactive) | > 100 µM (inactive) | > 100 µM (inactive) | > 100 µM (inactive) | > 100 µM (inactive) | > 100 µM (inactive) | > 100 µM (inactive) | > 100 µM (inactive) |
| Cc1ccc(C2=NN=C3C(c4ccccc4)=Nc4ccccc4N3C2)cc1 | 27.7 µM (inactive) | 10.9 µM (inactive) | 19.6 µM (inactive) | 4.73 µM | 24.1 µM (inactive) | 26.4 µM (inactive) | – | 12 µM (inactive) | 19.1 µM (inactive) | > 38 µM (inactive) | 22.6 µM (inactive) | 6.31 µM (inactive) | 5.51 µM (inactive) | 4.03 µM (inactive) | 11.6 µM (inactive) | 5.65 µM (inactive) | 1.92 µM (inactive) | 3.14 µM (inactive) | 19.8 µM (inactive) | 3.93 µM (inactive) |
| CN(C)CC1CCC(CN(C)C)C1=NO (stereo unspecified) | > 100 µM (inactive) | > 100 µM (inactive) | > 100 µM (inactive) | > 100 µM | > 100 µM (inactive) | – | > 100 µM (inactive) | > 10 µM (inactive) | > 100 µM (inactive) | > 100 µM (inactive) | – | > 100 µM (inactive) | > 100 µM (inactive) | > 100 µM (inactive) | > 100 µM (inactive) | > 100 µM (inactive) | – | – | – | – |
| O=C(CC(O)(C(F)(F)F)C(F)(F)Cl)CC(O)(C(F)(F)F)C(F)(F)Cl (stereo unspecified) | 2.37 µM (inactive) | 2.37 µM (inactive) | 3.04 µM (inactive) | 1.79 µM | 1.71 µM (inactive) | 3.09 µM (inactive) | – | 2.4 µM (inactive) | 1.34 µM (inactive) | 4.34 µM (inactive) | 1.59 µM (inactive) | 1.72 µM (inactive) | 3.86 µM (inactive) | 1.32 µM (inactive) | 2.33 µM (inactive) | 2.82 µM (inactive) | 2.99 µM (inactive) | 1.17 µM (inactive) | 2.05 µM (inactive) | 2.58 µM (inactive) |
| COc1ccc2nc3ccc(OC)cc3c([S+]([O-])Cc3ccccc3)c2c1 (stereo unspecified) | 19.1 µM (inactive) | 16.3 µM (inactive) | 19.4 µM (inactive) | 6.61 µM | 4.76 µM (inactive) | 17.8 µM (inactive) | – | 17.8 µM (inactive) | 7.73 µM (inactive) | 9.33 µM (inactive) | 17 µM (inactive) | 16.8 µM (inactive) | 3.89 µM (inactive) | 7.8 µM (inactive) | 3.05 µM (inactive) | 2.07 µM (inactive) | 3.84 µM (inactive) | 2.07 µM (inactive) | 16 µM (inactive) | 20.3 µM (inactive) |
| Cc1cc2nc(C=C(C(F)(F)F)C(F)(F)F)oc2cc1C | 5.12 µM (inactive) | 3.15 µM (inactive) | 3.08 µM (inactive) | 3.37 µM | > 10 µM (inactive) | > 10 µM (inactive) | – | > 10 µM (inactive) | 2.88 µM (inactive) | > 10 µM (inactive) | > 10 µM (inactive) | > 10 µM (inactive) | 1.73 µM (inactive) | > 10 µM (inactive) | 3.04 µM (inactive) | 2.09 µM (inactive) | 2.03 µM (inactive) | 5.64 µM (inactive) | 2.88 µM (inactive) | 2.51 µM (inactive) |
